Data set [1] in a line: Pharmacokinetics in healthy mice. The class given is in vivo. The conditions noted are these: single dose, formulations 5 mg/kg b.w., free 2C 1 mg/kg b.w. As to the method:
For pharmacokinetic studies, 2C-L and 2C-FL were administered to healthy mice. A single dose of 5 mg/kg body weight (b.w.) of the formulations was injected via the tail vein. Free 2C was administered in a single dose comprising 1 mg/kg b.w. Blood aliquots were collected using a non-mortality model at different periods, and serum was centrifuged out. […] Results are reported as the mean ± SD of three independent experiments.

Data set [2] is described as follows: Erythrocyte lysis test (in vitro toxicity). The conditions noted are these: rabbit erythrocytes (0.2% RBC suspension), pH 7.4, dose of 10 mg/L, 37 °C, read-out: hemolytic ability to erythrocytes (percent hemolysis). In kind it is cell-based. As to the method:
The in vitro toxicity of free 2C and 2C-FL was determined using the previously published method of erythrocyte lysis test. Briefly, blood samples from a healthy rabbit were collected in an anticoagulant solution. The samples were centrifuged at 4 °C, the pellet containing erythrocytes was washed with PBS (pH 7.4), and, finally, 50% hematocrit was prepared. […] The hemolytic effects were evaluated by visible spectroscopy at 576 nm, and percent hemolysis was calculated. The 100% hemolytic ability of Triton X-100 was taken as the positive control. Results are expressed as the mean ± SD of three independent experiments.

Data set [3] relates to non-cancer cell lines. On the set-up: method as in PMID 24513049. Conditions: cited from earlier work.
The subject of data set [4] is Candida albicans ATCC 66027, Candida spp. 12,810 (blood) and Candida spp. On the set-up: method as in PMID 24513049. Conditions: in vitro, series of substituted thiosemicarbazide derivatives; cited from earlier work.
Data set [5] deals with C. albicans (ATCC 18804). Kind of data set: Minimum inhibitory concentration by broth microdilution. In kind it is cell-based. Conditions: Candida albicans, ATCC18804, 50% inhibition of growth, RPMI 1640, 24 h, 37 °C, formulation weight for formulations. (In general: Broth dilution looks for growth in wells or tubes with falling amounts of substance.)
Data set [6] in a line: Determination of 2C dose (LD50) in healthy mice. The class given is in vivo. As for the experimental part: The dose of 2C for the antifungal treatment in vivo was determined according to the already published report. Five groups (n = 5/group) comprising healthy mice were intraperitoneally injected with different doses of 2C. Mice of the sixth group (control group) were intraperitoneally injected with PBS.

The nature of data set [7]: Histopathological examination of liver and kidney sections. In kind it is in vivo. The conditions noted are these: healthy mice, H&E, 200X. As to the method: (§1) For in vivo toxicity, renal and hepatic toxicities were evaluated in healthy mice. According to the method of Khan et al., [39], a three-dose regimen of 400 µg formulation/dose/mouse was intraperitoneally given on the 1st, 3rd, and 5th days. Blood samples from different treatment groups were taken as pre-dose (a day before the administration of the formulation) and post-dose (the 6th day of the administration of the formulation). The levels of serum creatinine, ALT, and total bilirubin were evaluated by employing a commercial detection kit. Results are expressed as the mean ± SD of three independent experiments. Moreover, the extent of toxicity of 2C-FL was determined on liver and kidney histopathology.
Briefly, the fixed tissues were dehydrated and embedded in paraffin wax. […] Next, paraffin from the sections was removed by three consecutive washings in xylol. The sections were then […] in series of alcohol grades (70–100%), and, finally, the sections were stained with hematoxylin and eosin and visualized under a light microscope (Olympus CLX 41) at 200X magnification.

On the set-up of data set [8]: method as in PMID 26457700. The conditions noted are these: solubility checked earlier; cited from earlier work.
Data set [9] in a line: In vivo renal and hepatic toxicity (serum creatinine, ALT, total bilirubin). Conditions: healthy mice. As to the method:
as §1

Data set [10] has as its system C. albicans. Kind of data set: Survival of C. albicans-infected mice. In kind it is in vivo, Swiss albino mice. Conditions: 2 mg 2C/kg b.w. for five days. As for the experimental part: The antifungal activity of 2C-FL was determined in a mouse model with C. albicans infection. For infection, healthy mice were infected with an inoculum of 100 µL saline containing 5 × 10^5 CFU of C. albicans per mouse by an intravenous route in the lateral tail vein. One day post-infection, the mice were randomly distributed into six groups (n = 10/group) and treated with formulations (2 mg 2C/kg b.w.) for five days. […] A simultaneous set of experiments was conducted for the survival studies.
The antifungal ability of 2C-FL was also determined by evaluating the survival rate of the treated mice. The study was conducted for 60 days, during which mice were monitored for mortality twice each day and results were scored.

For data set [11], the system named is C. albicans. Kind of data set: Annexin-V assay for detecting apoptosis. The class given is cell-based, Candida albicans. The conditions noted are these: annexin V-FITC/PI flow cytometry. As for the experimental part:
The therapeutic effect of 2C-FL against fungal infection was done by detecting the presence of apoptosis markers in C. albicans, as mentioned by Tang et al.. Briefly, 5 × 10^6 colony-forming units (CFU)/mL of C. albicans were grown at 37 °C for 5 h in the RPMI 1640 medium containing 2C-L and 2C-FL, separately. The culture was further incubated for 48 h at 37 °C with shaking at 180 rpm. After harvesting and washing with PBS (pH 7.4), the fungus was digested with a lysis buffer. After digestion, apoptotic cell death was analyzed using an annexin V assay as per the published protocol. The fungal cell suspension was incubated with annexin V-FITC (50 µg/mL) and propidium iodide (PI; 200 µg/mL) in dark for 20 min at room temperature. The apoptotic and necrotic cells were scored by flow cytometry (MACSQuant, Germany).
Background: Flow cytometry measures light scatter and fluorescence of single cells or particles in a stream.

The mark [12] stands for this setting: serum, post-dose, 400 µg formulation/dose/mouse i.p. on days 1, 3, 5.

In brackets after ≈: the same amount, converted by molar mass.

In general, Cmax refers to the peak of the concentration-time curve. What is called clearance is the volume of plasma or blood freed of the substance per unit of time. One may read the MIC as the lowest concentration found to suppress growth. In data set [1] (Swiss albino, mouse, plasma, intravenous), `O=C(NNC(=S)Nc1ccc(Cl)cc1)c1ccncc1` [2C] had a Cmax of 1400 ± 250 ng/mL. In addition, the clearance in data set [1] (Swiss albino, mouse, plasma, intravenous, read-out: CL (plasma clearance) (converted)) is 1.28 mL/min. Also, the “AUC0–24” value in [1] is 0.91 ± 0.17 µg/mL x h. Also, the hemolysis at 1 h, 10 mg/L in [2] turned out to be 100%. Also, in [3], the “toxicity to non-cancer cell lines” value is given as “minimal toxicity”. Besides, in [4], the “anti-Candida activity within the series” value was “most effective one”. The compound further showed an MIC in [5] of 0.46 ± 0.05 µg/mL (≈ 1.5 µM). Moreover, the LD50 in data set [6] (healthy mice, intraperitoneal, mortality after 24 h) came out at 20 mg/kg b.w. Moreover, the “mortality at one-tenth of the LD50” value in data set [6] (mice, 2 mg/kg b.w., three weeks of treatment) is given as “did not show any mortality”. Also, in data set [7], the “toxic effect on kidney histopathology” value was “prominent toxicity”; the “toxic effect on liver histopathology” value is “focal lytic necrosis and enlarged sinusoids”. In data set [8], the solubility in water result is on record as “insoluble in water”. In [9] (setting [12]), the “ALT, Day 6” value stood at 45.1 ± 8.5 U/I; the “Creatinine, Day 6” value is 0.34 ± 0.05 mg%; the “Total Bilirubin, Day 6” value is 0.21 ± 0.07. Also, in [9] (serum, pre-dose), the “ALT, Day 0” value is reported as 40.9 ± 7.3 U/I; the “Creatinine, Day 0” value is 0.29 ± 0.06 mg%; the “Total Bilirubin, Day 0” value is reported as 0.15 ± 0.04. The “change in serum creatinine, ALT and bilirubin levels versus healthy control” value in [9] (sixth day) was “showed an increase”. In addition, in data set [10], the “survival of treated mice till the 30th day” value came out at 30%. For the same compound, in data set [11], the necrosis entry was “prominent increase”.
For the compound `CCC(C)n1ncn(-c2ccc(N3CCN(c4ccc(OCC5COC(Cn6cncn6)(c6ccc(Cl)cc6Cl)O5)cc4)CC3)cc2)c1=O` (stereo not shown) [Itraconazole, itraconazole, reference compound], in data set [5], the MIC is 1.26 ± 0.71 µg/mL (≈ 1.79 µM).

The record behind these values is paper PMC7998974, “Enhanced Efficacy of Thiosemicarbazone Derivative-Encapsulated Fibrin Liposomes against Candidiasis in Murine Model” (Pharmaceutics, 2021).
